Source: US12599578B2, “Compositions comprising enzyme-cleavable prodrugs and controlled release nafamostat and methods of use thereof” (Ensysce Biosciences Inc., priority 2021, dated 2026)
Read-outs that look alike come from different tables or passages of the source.

Key:
[1] = Plasma oxycodone pharmacokinetics after oral KC-8 with or without nafamostat in rats; format: in vivo; conditions: nafamostat co-administered with an oxycodone or hydromorphone derivative
Experimental: The drug nafamostat mesylate was added to the formulations containing the KC-8 oxycodone-derivative. In the examples described herein, the terms “nafamostat mesylate” and “nafamostat” are used interchangeably.
Formulations containing both KC-8 and optionally nafamostat were administered orally to rats. The KC-8 dose was 5 mg/kg and the nafamostat concentration was 0, 0.1, 0.5, or 1 mg/kg. Plasma concentrations of active oxycodone were measured at various time intervals over 24 hours after administration.
In particular, the rats received 50 mg/kg of KC-8 and 0, 1, 5, or 10 mg/kg of nafamostat. With zero nafamostat, blood plasma concentration experienced a maximum of about 22 ng/ml at about 2 hours, wherein the concentration rapidly descended thereafter. In alignment with the data of FIG. 2, higher concentrations of nafamostat reduced the peak concentration to about 3 ng/ml at about 8 hours.

[2] = Blood hydromorphone after 1, 3, 6 or 10 pills of PF329 with or without nafamostat in rats; format: in vivo; conditions: rats, 1, 3, 6 or 10 pills of PF329 containing nafamostat (FIG. 5)
Description: The rat experiments were repeated with a derivative of hydromorphone (referred to herein as PF329), which is another known pain medication. FIGS. 4 and 5 show the blood concentration of active hydromorphone (HM) after the administration of 1, 3, 6, or 10 pills, either without or with nafamostat.

[3] = 200 mg nafamostat; cited from earlier work
[4] = doses of up to 200 mg KC-8 (80 mg oxycodone); cited from earlier work

Row | SMILES | effect on maximum concentration of active drug in blood plasma [1] | change of hydromorphone blood concentration on administering more pills [2] | safety and tolerability [3] | safety and tolerability [4]
1 | N=C(N)c1ccc2cc(OC(=O)c3ccc(N=C(N)N)cc3)ccc2c1 [nafamostat, 6-carbamimidoylnaphthalen-2-yl 4-(diaminomethyleneamino)benzoate] | significantly reduced the maximum concentration of active drug in blood plasma | little increase | safe and well tolerated | 
2 | COc1ccc2c3c1O[C@H]1C(OC(=O)N(C)CC(C)(C)CNC(=O)[C@H](CCCNC(=N)N)NC(=O)CNC(=O)CC(=O)O)=CC[C@@]4(O)[C@@H](C2)N(C)CC[C@]314 [KC-8, N-1-[3-(oxycodone-6-enol-carbonyl-methyl-amino)-2,2-dimethyl-propylamine]-arginine-glycine-malonic acid] |  |  |  | safe and well tolerated
